{"source": "patent US5130327A", "about": "“Indole derivatives” (Consejo Superior de Investigaciones Cientificas, priority 1989, dated 1992)", "key": {"[1]": {"system": "brain, duodenum and liver MAO A", "experiment": "In vivo inhibition of MAO A of different tissues after chronic treatment", "set-up": "species or system rat", "conditions": "cerebral vs intestinal or hepatic", "method": "(§1) 4. \"In vivo\" inhibition of MAO A and B of different tissues after chronic treatment.\n(§2) In order to evaluate the effect of compounds in a chronic treatment, the inhibitory activity on brain, duodenum and liver MAO A and B has been studied \"in vivo\". Wistar male rats were treated at two dose levels, 0.1 and 0.25 mg/kg i.p. for 15 and 21 days. Control rats received similar amounts of saline solution."}, "[2]": {"system": "brain, duodenum and liver MAO B", "experiment": "In vivo inhibition of MAO B of different tissues after chronic treatment", "set-up": "species or system rat", "method": "as §1, §2"}, "reuptake of 5-HT": {"system": "reuptake of 5-HT", "experiment": "Reuptake of 5-HT in vitro, crude synaptosomal preparation", "format": "biochemical, rat", "method": "(§3) Influence on the reuptake of monoamines \"in vitro\" was also studied. The effect of the compounds on the reuptake of 5-HT noradrenaline and dopamine was studied using Wistar male rats (350±2.5 g). They were kept under controlled light and temperature conditions and fed \"ad libitum\" until killed. The animals were killed by decapitation and brains were frozen and stored at -20° C. prior to analysis. Brains were dissected on an ice-filled petri dish. The cortices for 5-HT and noradrenaline assay and striatum (including caudate nucleus, putamen and globus pallidus) for dopamine assay were immediately weighed and homogenized. […] All drugs used in the study were dissolved in the incubation medium in a concentration range 10^-4 to 10^-8 M and were preincubated with the crude synaptosomal preparation obtained from the treated brains, for 5 min. at 37° C. or 0° C. before the addition of the labelled substrate."}, "reuptake of dopamine": {"system": "reuptake of dopamine", "experiment": "Reuptake of dopamine in vitro, crude synaptosomal preparation", "format": "biochemical, rat", "method": "as §3"}, "[3]": {"system": "reuptake of noradrenaline", "experiment": "Reuptake of noradrenaline in vitro, crude synaptosomal preparation", "format": "biochemical, rat", "method": "Influence on the reuptake of monoamines \"in vitro\" was also studied. The effect of the compounds on the reuptake of 5-HT noradrenaline and dopamine was studied using Wistar male rats (350±2.5 g). They were kept under controlled light and temperature conditions and fed \"ad libitum\" until killed. The animals were killed by decapitation and brains were frozen and stored at -20° C. prior to analysis. Brains were dissected on an ice-filled petri dish. The cortices for 5-HT and noradrenaline assay and striatum (including caudate nucleus, putamen and globus pallidus) for dopamine assay were immediately weighed and homogenized. The standard incubation medium contained: 1.7 μM ^14 C-5-HT); 0.5μM ^3 H-noradrenaline or 1 μM ^3 H-dopamine with 0.1 ml of the crude synaptosomal preparation. All drugs used in the study were dissolved in the incubation medium in a concentration range 10^-4 to 10^-8 M and were preincubated with the crude synaptosomal preparation obtained from the treated brains, for 5 min. at 37° C. or 0° C. before the addition of the labelled substrate."}, "[4]": {"system": "cerebral β-adrenergic receptors", "experiment": "Effects of chronic treatment on β receptors", "format": "in vivo", "conditions": "chronic administration in the rat", "method": "(§4) Effects of chronic treatment on α2 -, β- and 5-HT2 receptors. The test compounds, at a dose of 10 mg/kg/day i.p., were administered for 21 days to Wistar male rats (250±2.4 g). After treatment the animals were killed, brains were dissected and cortices were scraped from the dorsal surface of the […]. ^3 H UK 14304, ^3 H Dihydroalprenalol and ^3 H Ketanserin were used as ligands in the binding studies."}, "α-adrenergic receptors": {"system": "α-adrenergic receptors", "experiment": "Effects of chronic treatment on α2 receptors", "format": "in vivo", "conditions": "chronic administration in the rat", "method": "as §4"}, "5-HT receptors": {"system": "5-HT receptors", "experiment": "Effects of chronic treatment on 5-HT2 receptors", "format": "in vivo", "conditions": "chronic administration in the rat", "method": "as §4"}, "[5]": {"experiment": "Behavioural Despair (Porsolt's test)", "format": "in vivo", "method": "The pharmacological profile was carried out assessing the antidepressant activity with the following tests:\nBehavioural Despair (Porsolt et al. Arch. Int. Pharmacodyn; 229:327-336, 1977),"}, "[6]": {"experiment": "Interaction with clonidine-induced hypoactivity", "format": "in vivo", "from_the_text": "(§5) The action mechanism was studied in acute and chronic treatments on the interaction response with clonidine, salbutamol (Richard, J. Intern. J. Neuroscience, 9:17-19, 1979) and tetrabenazine (Pletscher, A.: An. N.Y. Aca. Sci. 80:1039-1045, 1959), and the response to the potentiation with L-dopa, L-tryptophan, tryptamine (Jalfre, M. et al., Arch. Int. Pharmacodyn, 159:194-221, 1982) and β-phenylethylamine (Ortmann, et al, Psychopharmacol. 84:22-27, 1984)."}, "[7]": {"experiment": "Interaction with salbutamol-induced hypoactivity", "format": "in vivo", "from_the_text": "as §5"}, "[8]": {"experiment": "Potentiation of L-tryptophan, L-dopa and tryptamine", "conditions": "in vivo", "from_the_text": "as §5"}, "Potentiation of 5-HT": {"experiment": "Potentiation of 5-HT", "format": "in vivo"}, "[9]": {"experiment": "Potentiation of β-phenylethylamine", "format": "in vivo", "from_the_text": "as §5"}, "[10]": {"experiment": "\"Cheese effect\" by tyramine potentiation", "conditions": "in vivo", "method": "(§6) The secondary effects were studied mainly on the cardiovascular system, and the effects on the arterial pressure, heart rate and rhythm, P-R interval and isolated organ (rabbit aortic rings and isolated atria), were evaluated both after acute and chronic treatments. In the same way, the \"cheese effect\" was studied by means of the tyramine potentiation."}, "[11]": {"experiment": "Secondary effects on the cardiovascular system", "conditions": "in vivo", "method": "as §6"}}, "note": "Where two headings read alike, the source gives them in different places.", "data": [{"smiles": "C#CCN(C)Cc1cc2cc(OC)ccc2n1C", "note": "[(l), N-methyl-N-propargyl-2-(1-methyl-5-methoxy-indolyl)methylamine]", "values": [{"measurement": "MAO A inhibitory effect, comparison of tissues", "setting": "[1]", "result": "higher on cerebral MAO A than on intestinal or hepatic MAO A"}, {"measurement": "Activity on hepatic MAO B", "setting": "[2]; hepatic", "result": "very low activity"}, {"measurement": "Effect on intestinal MAO B", "setting": "[2]; intestinal", "result": "without any effect"}, {"measurement": "Inhibition of the reuptake of 5-HT", "setting": "reuptake of 5-HT", "result": "potent inhibitor"}, {"measurement": "Potency as inhibitor of 5-HT reuptake relative to chlorimipramine or imipramine", "setting": "reuptake of 5-HT", "result": "much higher"}, {"measurement": "Inhibition of the reuptake of dopamine", "setting": "reuptake of dopamine", "result": "very weak inhibitor"}, {"measurement": "Potency as inhibitor of dopamine reuptake relative to amitryptiline", "setting": "reuptake of dopamine", "result": "similar"}, {"measurement": "Potency as inhibitor of dopamine reuptake relative to imipramine", "setting": "reuptake of dopamine", "result": "ten fold"}, {"measurement": "Effect on the reuptake of noradrenaline", "setting": "[3]", "result": "no effect"}, {"measurement": "Number or affinity of cerebral β-adrenergic receptors", "setting": "[4]", "result": "does not modify"}, {"measurement": "Modifications on α-adrenergic receptors", "setting": "α-adrenergic receptors", "result": "not statistically significant"}, {"measurement": "Modifications on 5-HT receptors", "setting": "5-HT receptors", "result": "not statistically significant"}, {"measurement": "minimal effective dose", "setting": "[5]; acute treatment, read-out: Porsolt's test MED, acute", "result": 50, "unit": "mg/kg"}, {"measurement": "minimal effective dose", "setting": "[5]; chronic treatment, read-out: Porsolt's test MED, chronic", "result": 20, "unit": "mg/kg"}, {"measurement": "Persistence of activity in Porsolt's test", "setting": "[5]; in vivo", "result": "at least 24 hours"}, {"measurement": "Hypoactivity by clonidine, acute treatment", "setting": "[6]; acute treatment", "result": "not modifying it"}, {"measurement": "Hypoactivity by clonidine, chronic treatment", "setting": "[6]; chronic treatment (5 days)", "result": "antagonized"}, {"measurement": "Hypoactivity by salbutamol, acute treatment", "setting": "[7]; acute treatment", "result": "not modifying it"}, {"measurement": "Hypoactivity by salbutamol, chronic treatment", "setting": "[7]; chronic treatment (14 days)", "result": "antagonized"}, {"measurement": "Potentiation of effects of L-tryptophan, L-dopa and tryptamine", "setting": "[8]", "result": "confirm the MAO inhibitory activity"}, {"measurement": "ED50", "setting": "Potentiation of 5-HT", "result": 0.34, "unit": "mg/kg"}, {"measurement": "ED50", "setting": "[9]", "result": 27, "unit": "mg/kg"}, {"measurement": "\"Cheese effect\"", "setting": "[10]", "result": "some \"cheese effect\""}, {"measurement": "Cardiovascular effects", "setting": "[11]", "result": "hypotensive and negative chronotrope"}]}]}
